Test results taken from article PMC10102067, “Synthesis of vancomycin fluorescent probes that retain antimicrobial activity, identify Gram-positive bacteria, and detect Gram-negative outer membrane damage” (Communications Biology, 2023).

Columns and labels:
[1] = test system: S. aureus ATCC 25923; assay: Airyscan confocal super-resolution imaging, comparison of probes (Fig. S2C); type: cell-based; conditions: 2 and 16 µg/mL, 30 min 37 °C
Experimental: Figure S2. Comparison of probe 7 and probe 9 to commercial fluorescent probes using flow cytometry
and microscopy. […]
Van-BODIPY (V34850, Invitrogen™) in S. aureus ATCC 25923. Bacteria were stained with probes (2 and 16
µg/mL, Green) for 30 min at 37 °C. Arrows indicate cells with Van-BODIPY entering cytoplasm. Scale bar = 1 µm.

[2] = test system: E. coli; assay: microbe, parasite or virus in culture; conditions: 3 h
Experimental: Bacteria were obtained from the American Type Culture Collection (ATCC; Manassas, VA, USA), Merck Sharp & Dohme (Kenilworth, NJ), the Coli Genetic Stock Center (CGSC, Yale University), Network on Antimicrobial Resistance in Staphylococcus aureus (NARSA) via BEI Resources (www.beiresources.org) and independent academic clinical isolate and mutant collections. All species used in this study were described fully in Table S4. Bacteria were cultured in Cation-Adjusted Mueller-Hinton Broth (CAMHB, Bacto Laboratories, Cat No. 212322) or Muller Hinton Broth (MHB, Bacto Laboratories, Cat No. 211443) at 37 °C overnight. A sample of each culture was then diluted 50-fold in MHB and incubated at 37 °C for 1.5–3 h. The stock solutions of vancomycin probes 7, 8 and 9 were prepared at 1.28 mg/mL in sterile water. The compounds were serially diluted two-fold across the wells, with concentrations ranging from 0.06 µg/mL to 128 µg/mL, plated in duplicate. […]

[3] = test system: S. aureus ATCC 25923; assay: Flow cytometry comparison with commercial fluorescent probes (Fig. S2A); type: cell-based; conditions: 2 and 16 µg/mL, 30 min 37 °C
Description: (§1) Figure S2. Comparison of probe 7 and probe 9 to commercial fluorescent probes using flow cytometry and microscopy. Labelling of S. aureus ATCC 25923 (A) and E. coli ATCC25922 (B) with vancomycin probe 7, probe 9, Van-FITC (SBR00028, Sigma-Aldrich), and Van-BODIPY (V34850, Invitrogen™) measured using flow […]
(§2) flow cytometer. The data are presented as the mean ± SEM (n = 3). GeoMean: Geometric Mean. (C) Airyscan confocal super-resolution imaging of vancomycin probe 7, probe 9, Van-FITC (SBR00028, Sigma-Aldrich), and Van-BODIPY (V34850, Invitrogen™) in S. aureus ATCC 25923. Bacteria were stained with probes (2 and 16 µg/mL, Green) for 30 min at 37 °C. Arrows indicate cells with Van-BODIPY entering cytoplasm. Scale bar = 1 µm.
(§3) (1 picture or pasted object on this page, not shown here)

[4] = test system: E. coli ATCC25922; assay: Flow cytometry comparison with commercial fluorescent probes (Fig. S2B); type: cell-based; conditions: 2 and 16 µg/mL, 30 min 37 °C
Description: as §1, §2, §3

[5] = test system: S. aureus; conditions: tested S. aureus strains (Table S3); dissolved in DMSO
Experimental: Bacteria were obtained from the American Type Culture Collection (ATCC; Manassas, VA, USA), Merck Sharp & Dohme (Kenilworth, NJ), the Coli Genetic Stock Center (CGSC, Yale University), Network on Antimicrobial Resistance in Staphylococcus aureus (NARSA) via BEI Resources (www.beiresources.org) and independent academic clinical isolate and mutant collections. All species used in this study were described fully in Table S4. Bacteria were cultured in Cation-Adjusted Mueller-Hinton Broth (CAMHB, Bacto Laboratories, Cat No. 212322) or Muller Hinton Broth (MHB, Bacto Laboratories, Cat No. 211443) at 37 °C overnight. A sample of each culture was then diluted 50-fold in MHB and incubated at 37 °C for 1.5–3 h. […] The compounds were serially diluted two-fold across the wells, with concentrations ranging from 0.06 µg/mL to 128 µg/mL, plated in duplicate. The resultant mid-log phase culture was diluted to 1 × 10^6 CFU/mL, then 50 µL was added to each well of the compound-containing 96-well plates (Corning, Cat. No 3641, non-binding surface (NBS) plates), giving a cell density of 5 × 10^5 CFU/mL, and a final compound concentration range of 0.03 µg/mL to 64 µg/mL.

| Structure (SMILES) | peptidoglycan labelling pattern (Airyscan imaging, in words) [1] | MIC [2] | staining of S. aureus (flow cytometry, in words) [3] | staining of E. coli (flow cytometry, in words) [4] | antimicrobial activity at the highest concentration tested [5] |
| --- | --- | --- | --- | --- | --- |
| CN[C@H](CC(C)C)C(=O)N[C@H]1C(=O)N[C@@H](CC(N)=O)C(=O)N[C@H]2C(=O)N[C@H]3C(=O)N[C@H](C(=O)N[C@H](C(=O)O)c4cc(O)cc(O)c4-c4cc3ccc4O)[C@H](O)c3ccc(c(Cl)c3)Oc3cc2cc(c3O[C@@H]2O[C@H](CO)[C@@H](O)[C@H](O)[C@H]2O[C@H]2C[C@](C)(NC(=O)CCc3ccc4n3[B-](F)(F)[N+]3=C(C)C=C(C)C3=C4)[C@H](O)[C@H](C)O2)Oc2ccc(cc2Cl)[C@H]1O [Van-BODIPY] | label the cells more uniformly | > 64 µg/mL | greatest intensity | stained a larger population of cells than the other probes |  |
| CC(C)C[C@H](C(=O)N[C@H]1C(=O)N[C@@H](CC(N)=O)C(=O)N[C@H]2C(=O)N[C@H]3C(=O)N[C@H](C(=O)N[C@H](C(=O)O)c4cc(O)cc(O)c4-c4cc3ccc4O)[C@H](O)c3ccc(c(Cl)c3)Oc3cc2cc(c3O[C@@H]2O[C@H](CO)[C@@H](O)[C@H](O)[C@H]2O[C@H]2C[C@](C)(N)[C@H](O)[C@H](C)O2)Oc2ccc(cc2Cl)[C@H]1O)N(C)C(=S)Nc1ccc2c(c1)C(=O)OC21c2ccc(O)cc2Oc2cc(O)ccc21 [Van-FITC] | no fluorescence signal observed at 2 µg/mL | > 64 µg/mL | the worst | did not show much staining | > 32 µg/mL |
